# Patent US6444470B1, “Transformation-enhancing compositions and methods of use” (Pioneer Hi-Bred International, Inc., priority 1999, dated 2002)
# Where two headings read alike, the source gives them in different places.
# Legend:
# maize elite inbred P38 [1] = system: maize elite inbred P38
# Experimental: (§1) Ears from greenhouse-grown or field-grown maize elite inbreds, P38 and N46, were treated with one of the following agents or combinations of agents at three days after pollination: dicamba, hormone cocktail, 2,4-D (2,4-dichlorophenoxyacetic acid), callus medium, water, ABA, Pluronic F68, proline mix, ACC, AVG, salts cocktail 4, salts cocktail 2 (Gamborg et al. (1968) Exp. Cell Res. 50:151), salts cocktail 1 (Murashige and Skoog (1962) Physiol. Plant. 15:473), salts cocktail 3 (Chu et al. (1975) Scientia Sinic. 18:659), 2,4D+salts cocktail 1, 2,4-D+salts cocktail 3, 2,4-D+dicamba and dicamba+ACC. The solutions were filter sterilized before applying to the ears at a rate of 10 mL/ear. The solutions were applied to the ears by injecting between the silks and husks at three days post pollination. Care was taken not to disrupt the ears.
# (§2) For transformation by particle bombardment, maize ears were harvested at ten days after pollination and surface sterilized in 50% CHLOROX™ laundry bleach plus 0.5% Tween 20 surfactant for 20 minutes, and rinsed two times with sterile water. The immature embryos were excised and placed embryo axis side down (scutellum side up), 25 embryos per plate, on 604 medium, incubated at 28° C. in the dark for three days. Prior to bombardment, all embryos were transferred to plates containing 604 medium and 15% sucrose and then aligned within the 2.5-cm target zone in preparation for bombardment. Al media recipes are in the Table 10-18.
# A plasmid vector comprising the coding region of uidA operably linked to a ubiquitin promoter was made. This plasmid DNA plus plasmid DNA containing a BAR selectable marker gene operably linked to the double 35S promoter was precipitated onto 1.1 μm (average diameter) tungsten pellets using a CaCl2 precipitation procedure as follows:
# The final mixture was sonicated briefly and allowed to incubate under constant vortexing for 10 minutes. After the precipitation period, the tubes were centrifuged briefly, liquid removed, washed with […] 100% ethanol, and centrifuged for 30 seconds. Again the liquid was removed, and 60 μL 100% ethanol was added to the final tungsten particle pellet. For particle gun bombardment, the tungsten/DNA particles were briefly sonicated and 10 μL spotted onto the center of each macrocarrier and allowed to dry about two minutes before bombardment.
# (§3) The sample plates were bombarded at level #4 in a Biorad PDS-1000 Helium gun. All samples received a single shot at 650 PSI, with a total of six aliquots taken from each tube of prepared particles/DNA. Following bombardment the embryos were maintained on 604 medium +15% sucrose for three days in the dark, and then transferred to 604S medium with 3 mg/L bialaphos, maintained for three weeks on 3 mg/L bialaphos, and then transferred to 604J at 5 mg/L bialaphos. Once herbicide-resistant colonies were well established and ready for regeneration, approximately eight weeks after bombardment, the herbicide-resistant colonies were transferred to 288O regeneration medium containing 3 mg/L bialaphos, maintained in the dark or seven days, and then transferred to the light at 28° C. for shoot formation and elongation. Callus response, colony and plant recovery and GUS gene expression were monitored during the course of the experiments.
# The effects of injecting into ears three days after pollination 10 mL of a 100 μM of dicamba, an auxin analogue, on maize transformation was investigated.
# maize immature embryos = conditions: for 21 Day Callus Response / 42 Day Callus Response / Colonies to Plants / Colonies to Regeneration / Colonies with GUS Expression: 100 μM ear pre-treatment
# Experimental: as §2, §3
# Prior to bombardment, freshly excised embryos were placed onto either 560P, 601H, or 604 medium and incubated at 28° C. in the dark for three days. Prior to bombardment, all embryos were transferred to 604 with 15% sucrose. […] Colonies were transferred to regeneration medium containing 3 mg/L Bialaphos after 8-9 weeks in culture.
# maize elite inbred N46 = test: Pre-harvest ear injection, then Agrobacterium-mediated transformation, inbred N46; format: in vivo; conditions: for percent of transformed colonies relative to the no-infusion control (in words): pre-harvest ear injection
# Experimental: as §1
# (§4) Agrobacterium-mediated transformation of maize was also employed. See, U.S. application Ser. No. 08/788,018, herein incorporated by reference.
# (§5) The ear injection was conducted as described in Example I. Other synthetic auxins were tested for their effects on the transformation of N46 and P38 maize.
# (§6) An endogenous plant growth regulator, abscisic acid (ABA), and other compounds known to influence plant growth were tested for their effects on maize transformation when applied to ears at four days after pollination using the injection method described in Example I. Additionally, the effect of the injection of water was also tested. […] ACC is a product of the reaction catalyzed by ACC synthase and a substrate of the reaction catalyzed by ACC oxidase, the ethylene-forming enzyme. AVG, on the other hand, is an inhibitor of ACC synthase.
# Several nitrogen-containing treatments were applied to ears at three days after pollination. The treatments employed are salt formulations that are commonly used in plant tissue culture media including salts cocktail 4, salts cocktail 2, salts cocktail 1 and salts cocktail 3. […]
# maize elite inbred P38 [2] = test: Pre-harvest ear injection, then Agrobacterium-mediated transformation, inbred P38; format: in vivo
# Experimental: as §1, §4, §5, §6
# Several nitrogen-containing treatments were applied to ears at three days after pollination. The treatments employed are salt formulations that are commonly used in plant tissue culture media including salts cocktail 4, salts cocktail 2, salts cocktail 1 and salts cocktail 3.
# Finally, some combination treatments were examined for their effects on the transformation of N46 and P38 maize (Table 7).
# maize ears = test: Lanolin-paste application to ears, then particle bombardment transformation; format: in vivo; conditions: for 21 Day Callus Response / 42 Day Callus Response / Regenerable Colonies / Plants Transformed: 0.5% in lanolin paste on half an ear, three days after pollination; for Plants Transformed: particle bombardment; for recovery of regenerable colonies and transformed plants (in words): lanolin paste, versus lanolin controls and non-treated control
# Description: Transformation-enhancing compounds were also introduced via lanolin. kLanolin paste was typically applied at a mass of 1 gram per ear. Husks were peeled back, but not removed, silks were removed, and the lanolin mixed with the compound was applied to the pericarp of the developing seed using a spatula. Ears were divided into halves longitudinally: one half would received lanolin with the compound and the other half received only lanolin.
# Al media recipes are in the Table 10-18.
# The effects of pre-harvest ear treatments of zeatin riboside and 2,4-D on maize transformation were investigated. Both agents were applied to separate ears at three days after pollination in a lanolin paste. The method employed for applying the transformation-enhancing agents of the invention to ears in lanolin paste is described in Example I. Ears were divided into halves longitudinally with one half of the ear receiving lanolin with zeatin riboside or 2,4-D and the other half receiving only lanolin. An additional ear that was not treated was used as a control.
# [3] = 100 μM ear injection three days after pollination, of 385 embryos
# [4] = 10 mL of 100 μM injected into ears three days after pollination, of 385 embryos
# [5] = initial culture medium 560P, 79 embryos
# [6] = initial culture medium 601H, 84 embryos
# [7] = initial culture medium 604, 128 embryos
# [8] = Table 5, ear injection three days after pollination, 10 mL/ear
# [9] = Table 6, ear injection four days after pollination
structure (smiles),measurement,setting,value
COc1c(Cl)ccc(Cl)c1C(=O)O [dicamba],Colonies Expressing GUS,maize elite inbred P38 [1]; [3],8.6%
same,Colonies to Plants,maize elite inbred P38 [1]; [3],4.2%
same,Colonies to Regeneration,maize elite inbred P38 [1]; [3],29.1%
same,Plants Transformed,"maize elite inbred P38 [1]; 100 μM ear injection three days after pollination, particle bombardment, of 385 embryos",3.11%
same,colonies that produced escapes,"maize elite inbred P38 [1]; 100 μM pre-treatment, of the plants recovered",two
same,21 Day Callus Response,maize elite inbred P38 [1]; [4],37.9%
same,42 Day Callus Response,maize elite inbred P38 [1]; [4],40%
same,56 Day Callus Response,maize elite inbred P38 [1]; [4],32.2%
same,Type I embryogenic callus response rate versus non pre-treated control (in words),maize elite inbred P38 [1]; ears pre-treated with 100 μM,"higher early in the experiment, and was maintained over the course of the study"
same,21 Day Callus Response,maize immature embryos; [5],12.7%(10)
same,42 Day Callus Response,maize immature embryos; [5],24%(19)
same,Colonies to Plants,maize immature embryos; [5],1.3%(1)
same,Colonies to Regeneration,maize immature embryos; [5],2.5%(2)
same,Colonies with GUS Expression,maize immature embryos; [5],2.5%(2)
same,21 Day Callus Response,maize immature embryos; [6],17.9%(16)
same,42 Day Callus Response,maize immature embryos; [6],16.5%(14)
same,Colonies to Plants,maize immature embryos; [6],0%
same,Colonies to Regeneration,maize immature embryos; [6],4.8%(4)
same,Colonies with GUS Expression,maize immature embryos; [6],2.4%(2)
same,21 Day Callus Response,maize immature embryos; [7],23.4%(30)
same,42 Day Callus Response,maize immature embryos; [7],33%(42)
same,Colonies to Plants,maize immature embryos; [7],0%
same,Colonies to Regeneration,maize immature embryos; [7],11.7%(15)
same,Colonies with GUS Expression,maize immature embryos; [7],4.7%(6)
same,colonies capable of regeneration,maize immature embryos; 100 μM pre-treatment / 560P medium,one
same,Number of GUS Positive Colonies,maize elite inbred N46; [8],89
same,Percent Colony Transformation,maize elite inbred N46; [8],9.50%
same,percent of transformed colonies relative to the no-infusion control (in words),maize elite inbred N46,superior transformation results
same,Number of GUS Positive Colonies,maize elite inbred P38 [2]; [8],11
same,Percent Colony Transformation,maize elite inbred P38 [2]; [8],1.10%
"C/C(=C\CNc1ncnc2c1ncn2[C@@H]1O[C@H](CO)[C@@H](O)[C@H]1O)CO [Zeatin riboside, zeatin riboside]",21 Day Callus Response,maize ears,9.4%
same,42 Day Callus Response,maize ears,9.4%
same,Regenerable Colonies,maize ears,0.6%
same,Plants Transformed,maize ears,0.6%
same,recovery of regenerable colonies and transformed plants (in words),maize ears,Regenerable colonies and transformed maize plants were recovered
"CC1=CC(=O)CC(C)(C)[C@@]1(O)/C=C/C(C)=C\C(=O)O [ABA, abscisic acid]",Number of GUS Positive Colonies,maize elite inbred N46; [9],25
same,Percent Colony Transformation,maize elite inbred N46; [9],20%
same,percent of transformed colonies relative to the no-infusion control (in words),maize elite inbred N46,largest increase in percent colony transformation above the control
same,Number of GUS Positive Colonies,maize elite inbred P38 [2]; [9],0
same,Percent Colony Transformation,maize elite inbred P38 [2]; [9],0%
"NC1(C(=O)O)CC1 [ACC, aminocyclopropane-1-carboxylic acid]",Number of GUS Positive Colonies,maize elite inbred N46; [9],12
same,Percent Colony Transformation,maize elite inbred N46; [9],6.80%
same,Number of GUS Positive Colonies,maize elite inbred P38 [2]; [9],0
same,Percent Colony Transformation,maize elite inbred P38 [2]; [9],0%
"O=C(O)COc1ccc(Cl)cc1Cl [2,4-D, 2,4-dichlorophenoxyacetic acid]",Number of GUS Positive Colonies,maize elite inbred N46; [8],4
same,Percent Colony Transformation,maize elite inbred N46; [8],2.70%
same,Number of GUS Positive Colonies,maize elite inbred P38 [2]; [8],2
same,Percent Colony Transformation,maize elite inbred P38 [2]; [8],4.20%
same,percent of transformed colonies relative to the no-infusion control (in words),maize elite inbred P38 [2]; pre-harvest ear injection,significantly greater percentages of transformed colonies than the control
same,21 Day Callus Response,maize ears,15.4%
same,42 Day Callus Response,maize ears,12.5%
same,Regenerable Colonies,maize ears,1.5%
same,Plants Transformed,maize ears,1.5%
same,recovery of regenerable colonies and transformed plants (in words),maize ears,Regenerable colonies and transformed maize plants were recovered
